Where a name gives a salt, the structure may show the parent alone.
Tests used:
[1] = tested on: corneal endothelial cells; assay: TBHP-induced cell death in corneal endothelial cells; format: cell-based, cow; conditions: corneal endothelial cells (FIG. 18); 0.9 μM 24 h, then 300 μM TBHP 24 h
Description: (§1) Immortalized cow corneal endothelial cells (CRL-2048) obtained from the American Type Culture Collection (ATCC, Manassas, VA, USA) were cultured in Dulbecco's modified Eagle's medium (DMEM; Thermo Fisher Scientific, Waltham, MA) containing 10% fetal bovine serum (FBS), 100 IU/mL penicillin, 100 μg/mL streptomycin, 100 μg/mL gentamicin, and 2.5 μg/mL amphotericin B (Thermo Fisher Scientific). Human ARPE-19 cells were plated in 96-well plates for 24 hours in DMEM supplemented with FBS and antibiotics. ARPE-19 cells were preincubated with either ciclopirox olamine (Sigma), compound 414 (Chemical Diversity, San Diego, CA), compound 434 (Chemical Diversity) or no compound for 24 hours and then exposed to varying concentrations of tert-butyl hydroperoxide (TBHP; Sigma-Aldrich, St. Louis, MO) the next day for 24 hours. Cell viability was measured the following day by […] cell viability assay (Promega, Madison, WI) using a BioTek FLX800TM fluorescence reader (BioTek Winooski, VT). […] Protective effect of 0.9 μMciclopirox olamine on lens epithelial cells exposed to 300 μMTBHP.

[2] = tested on: Human lens epithelial cells; assay: TBHP-induced cell death in lens epithelial cells; format: cell-based; conditions: lens epithelial cells (FIG. 19); 0.9 μM 24 h, then 300 μM TBHP 24 h
Description: as §1, with “human lens epithelial” for “cow corneal endothelial”, “(CRL-11421)” for “(CRL-2048)”, “in” for “in Dulbecco's modified”, “minimum essential media (EMEM, ATCC)” for “medium (DMEM; Thermo Fisher Scientific, Waltham, MA)”

[3] = tested on: Human iPSC-derived RPE cells; assay: Mitochondrial respiration (Seahorse XF) after TBHP in iPSC-derived RPE; format: cell-based

In the case of Cc1cc(C2CCCCC2)n(O)c(=O)c1 [ciclopirox olamine, 6-cyclohexyl-1-hydroxy-4-methyl-2(1H)-pyridone, ethanolamine salt, reference compound], the “cell viability after exposure to TBHP” value [1] is reported as “significantly increases cell viability”, the “cell viability after exposure to TBHP” value [2] is reported as “significantly increases cell viability” and the “mitochondrial function, treatment alone” value ([3]; iPSC-derived RPE treated with ciclopirox olamine alone) is reported as “improved”. The “protection from oxidative stress-induced cell death” value ([3]; iPSC-derived RPE, TBHP 24 h) was “protects”.
